Laboratory results published in patent publication US7759345B2, “Antitumoral derivatives of ET-743” (priority 2001, dated 2010).

Legend:
[1] = test system: Kidney
Description: (§2) Toxicity was asssessed by the methods reported in Toxicology in Vitro, 15 (2001) 571-577, J. Luber Narod et al.: “Evaluation of the use of in vitro methodolodies as tools for screening new compounds for potential in vivo toxicity”.

[2] = test system: PANC-1; test: Inhibition of cells growth by colorimetric assay (SRB), PANC-1; type: cell-based; conditions: SRB, 48 hours exposure; for GI50 / LC50 (concentration for 50% net cell kill): Homo sapiens, PANC-1, 48 h; for GI50 / PANC-1 TGI: PANC-1; for GI50: read-out: PANC-1 GI50; for LC50 (concentration for 50% net cell kill): read-out: PANC-1 LC50, PANC-1
Summary of the method: (§1)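 Human cancer cells (5×10^3/well) attached 18 h in RPMI 1640 10% FBS, then exposed 48 h at 37°C to compounds from 10 to 10^−8 μg/ml in DMSO/EtOH/PBS. TCA-fixed, SRB-stained, OD read at 490 nm; GI, TGI and LC derived from triplicate wells.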

[3] = test system: A-549; test: Inhibition of cells growth by colorimetric assay (SRB), A-549; type: cell-based; conditions: SRB, 48 hours exposure; for GI50 / LC50 (concentration for 50% cell killing): Homo sapiens, A549, 48 h; for A-549 TGI / GI50: A-549; for GI50: read-out: A-549 GI50; for LC50 (concentration for 50% cell killing): read-out: A-549 LC50, A-549
Summary of the method: as §1

[4] = test system: Myelo
Description: as §2

[5] = test system: Heart
Description: as §2

[6] = test system: HT-29; test: Inhibition of cells growth by colorimetric assay (SRB), HT-29; type: cell-based; conditions: SRB, 48 hours exposure; for GI50 / LC50 (concentration for 50% cell killing): Homo sapiens, HT-29, 48 h; for HT-29 TGI / GI50: HT-29; for GI50: read-out: HT-29 GI50; for LC50 (concentration for 50% cell killing): read-out: HT-29 LC50, HT-29
Summary of the method: as §1

[7] = test system: HMEC1; test: Inhibition of cells growth by colorimetric assay (SRB), HMEC1; type: cell-based; conditions: SRB, 48 hours exposure; for GI50 / LC50: Homo sapiens, HMEC-1, 48 h; for HMEC-1 TGI / GI50: HMEC-1; for GI50: read-out: HMEC-1 GI50; for LC50: read-out: HMEC-1 LC50, HMEC-1
Summary of the method: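 Human cancer and endothelial lines are seeded at 5×10^3 cells per well and, after 18 h, treated for 48 h with compound dissolved in DMSO/EtOH/PBS (0.5:0.5:99) at 10 to 10^−8 μg/ml. Cell mass is quantified by SRB staining (OD 490 nm), and growth inhibition, total growth inhibition and cell kill are calculated from triplicate wells.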

[8] = test system: K-562; test: Inhibition of cells growth by colorimetric assay (SRB), K-562; type: cell-based; conditions: SRB, 48 hours exposure; for GI50 / LC50 (50% cell killing): Homo sapiens, K562, 48 h; for GI50 / K-562 TGI: K-562; for GI50: read-out: K-562 GI50; for LC50 (50% cell killing): read-out: K-562 LC50, K-562
Summary of the method: as §1

[9] = test system: Skeletal
Description: as §2

[10] = test system: LoVo-Dox; test: Inhibition of cells growth by colorimetric assay (SRB), LoVo-Dox; type: cell-based; conditions: SRB, 48 hours exposure; for GI50 / CC50: Homo sapiens, 48 h; for GI50 / LOVO-DOX TGI: LOVO-DOX; for GI50: read-out: LOVO-DOX GI50; for CC50: read-out: LOVO-DOX LC50, LOVO-DOX
Summary of the method: as §1

[11] = test system: IGROV-1; test: Inhibition of cells growth by colorimetric assay (SRB), IGROV-1; type: cell-based; conditions: SRB, 48 hours exposure; for GI50 / CC50: Homo sapiens, IGROV-1, 48 h; for GI50 / IGROV TGI: IGROV; for GI50: read-out: IGROV GI50; for CC50: read-out: IGROV LC50, IGROV
Summary of the method: as §1

[12] = test system: Liver
Description: as §2

[13] = test system: SK-MEL-28; test: Inhibition of cells growth by colorimetric assay (SRB), SK-MEL-28; type: cell-based; conditions: SRB, 48 hours exposure; for GI50 / CC50: Homo sapiens, SK-MEL-28, 48 h; for GI50 / MEL-28 TGI: MEL-28; for GI50: read-out: MEL-28 GI50; for CC50: read-out: MEL-28 LC50, MEL-28
Summary of the method: as §1

[14] = test system: LoVo; test: Inhibition of cells growth by colorimetric assay (SRB), LoVo; type: cell-based; conditions: SRB, 48 hours exposure; for GI50 / LC50 (concentration for 50% cell killing): Homo sapiens, LoVo, 48 h; for GI50 / LOVO TGI: LOVO; for GI50: read-out: LOVO GI50; for LC50 (concentration for 50% cell killing): read-out: LOVO LC50, LOVO
Summary of the method: as §1

[15] = test system: DU-145; test: Inhibition of cells growth by colorimetric assay (SRB), DU-145; type: cell-based; conditions: SRB, 48 hours exposure; for GI50 / CC50: Homo sapiens, DU-145, 48 h; for DU-145 TGI / GI50: DU-145; for GI50: read-out: DU-145 GI50; for CC50: read-out: DU-145 LC50, DU-145
Summary of the method: as §1

[16] = test system: SK-OV-3; test: Inhibition of cells growth by colorimetric assay (SRB), SK-OV-3; type: cell-based; conditions: SRB, 48 hours exposure; for GI50 / LC50: Homo sapiens, SK-OV-3, 48 h; for GI50 / SK-OV3 TGI: SK-OV3; for GI50: read-out: SK-OV3 GI50; for LC50: read-out: SK-OV3 LC50, SK-OV3
Summary of the method: as §1

[17] = test system: LNCaP; test: Inhibition of cells growth by colorimetric assay (SRB), LNCaP; type: cell-based; conditions: SRB, 48 hours exposure; for GI50 / CC50: Homo sapiens, LNCaP, 48 h; for GI50: read-out: LNCAP GI50, LNCAP; for CC50: read-out: LNCAP LC50, LNCAP
Summary of the method: as §1

[18] = test system: SK-BR-3; test: Inhibition of cells growth by colorimetric assay (SRB), SK-BR-3; type: cell-based; conditions: SRB, 48 hours exposure; for GI50 / CC50: Homo sapiens, SK-BR-3, 48 h; for GI50 / SK-BR3 TGI: SK-BR3; for GI50: read-out: SK-BR3 GI50; for CC50: read-out: SK-BR3 LC50, SK-BR3
Summary of the method: as §1

[19] = test system: IGROV-ET; test: Inhibition of cells growth by colorimetric assay (SRB), IGROV-ET; type: cell-based; conditions: SRB, 48 hours exposure; for GI50 / CC50: Homo sapiens, 48 h; for GI50 / IGROV-ET TGI: IGROV-ET; for GI50: read-out: IGROV-ET GI50; for CC50: read-out: IGROV-ET LC50, IGROV-ET
Summary of the method: as §1

In the case of `COc1cc2c(cc1O)CCN(C)[C@]21CS[C@@H]2c3c(OC(C)=O)c(C)c4c(c3[C@H](COC1=O)N1C2[C@H]2c3c(cc(C)c(OC)c3O)C[C@@H]([C@@H]1O)N2C)OCO4` (stereo partly shown) [Compound 93], the “Toxicity Data Kidney” value [1] is reported as 6.32E-08, the GI50 [2] is reported as 0.314 nM and the LC50 (concentration for 50% net cell kill) [2] is reported as 12900 nM. For the same compound, the “PANC-1 TGI” value [2] was 1.29E-09, the “A-549 TGI” value [3] was 2.90E-09 and the GI50 [3] was 0.463 nM. The LC50 (concentration for 50% cell killing) [3] was 12.9 nM, the “Toxicity Data Myelo” value [4] was 3.35E-09 and the “Toxicity Data Heart” value [5] was 4.46E-08. The “HT-29 TGI” value [6] was 1.29E-08, the GI50 [6] was 0.635 nM and the LC50 (concentration for 50% cell killing) [6] was 12900 nM. The “HMEC-1 TGI” value [7] was 1.55E-10, the GI50 [7] was 0.037 nM and the LC50 [7] was 0.487 nM. The GI50 [8] was 0.611 nM, the LC50 (50% cell killing) [8] was 9540 nM and the “K-562 TGI” value [8] was 1.29E-08. The “Toxicity Data Skeletal” value [9] was 5.52E-10, the GI50 [10] was 7.71 nM and the CC50 [10] was 12900 nM. For the same compound, the “LOVO-DOX TGI” value [10] was 9.87E-08, the GI50 [11] was 0.214 nM and the CC50 [11] was 129 nM. For the same compound, the “IGROV TGI” value [11] was 6.46E-10, the “Toxicity Data Liver” value [12] was 1.13E-08 and the GI50 [13] was 0.281 nM. The CC50 [13] was 3.58 nM, the “MEL-28 TGI” value [13] was 6.24E-10 and the GI50 [14] was 0.768 nM. The LC50 (concentration for 50% cell killing) [14] was 12900 nM, the “LOVO TGI” value [14] was 4.58E-09 and the “DU-145 TGI” value [15] was 6.30E-10. The GI50 [15] was 0.331 nM, the CC50 [15] was 1.29 nM and the GI50 [16] was 0.409 nM. For the same compound, the LC50 [16] was 12900 nM, the “SK-OV3 TGI” value [16] was 1.29E-09 and the GI50 [17] was 2.85 nM. The CC50 [17] was 129 nM, the “LNCAP TGI” value [17] was 6.77E-09 and the GI50 [18] was 0.445 nM. The CC50 [18] was 9.5 nM, the “SK-BR3 TGI” value [18] was 1.96E-09 and the GI50 [19] was 21.5 nM. The CC50 [19] was 12900 nM and the “IGROV-ET TGI” value [19] was 1.31E-07.
`COC1=C(C)C(=O)C2=C(C1=O)[C@@H]1C3[C@@H]4SC[C@]5(NCCc6cc(O)c(OC)cc65)C(=O)OC[C@@H](c5c6c(c(C)c(OC(C)=O)c54)OCO6)N3[C@@H](O)[C@H](C2)N1C` (stereo partly shown) [Compound 101] was tested, and the “Toxicity Data Kidney” value [1] was 3.17E-08, the GI50 [2] was 5.66 nM and the LC50 (concentration for 50% net cell kill) [2] was 1340 nM. The “PANC-1 TGI” value [2] was 2.27E-08, the “A-549 TGI” value [3] was 6.52E-09 and the GI50 [3] was 3.69 nM. The LC50 (concentration for 50% cell killing) [3] was 11.5 nM, the “Toxicity Data Myelo” value [4] was 1.96E-08 and the “Toxicity Data Heart” value [5] was 7.67E-08. The “HT-29 TGI” value [6] was 1.03E-08, the GI50 [6] was 3.57 nM and the LC50 (concentration for 50% cell killing) [6] was 12900 nM. The “HMEC-1 TGI” value [7] was 1.17E-08, the GI50 [7] was 3.05 nM and the LC50 [7] was 12900 nM. The GI50 [8] was 0.25 nM, the LC50 (50% cell killing) [8] was 19.2 nM and the “K-562 TGI” value [8] was 6.20E-10. For the same compound, the “Toxicity Data Skeletal” value [9] was 3.40E-09, the GI50 [10] was 251 nM and the CC50 [10] was 12900 nM. The “LOVO-DOX TGI” value [10] was 9.29E-07, the GI50 [11] was 2.5 nM and the CC50 [11] was 10.7 nM. The “IGROV TGI” value [11] was 5.17E-09, the “Toxicity Data Liver” value [12] was 5.40E-08 and the GI50 [13] was 3.35 nM. For the same compound, the CC50 [13] was 26 nM, the “MEL-28 TGI” value [13] was 7.02E-09 and the GI50 [14] was 13.4 nM. The LC50 (concentration for 50% cell killing) [14] was 219 nM, the “LOVO TGI” value [14] was 4.68E-08 and the “DU-145 TGI” value [15] was 7.46E-09. It also gave a GI50 [15] of 3.74 nM, a CC50 [15] of 17.9 nM and a GI50 [16] of 4.49 nM. For the same compound, the LC50 [16] was 12900 nM, the “SK-OV3 TGI” value [16] was 9.77E-09 and the GI50 [17] was 2.5 nM. The CC50 [17] was 7.71 nM, the “LNCAP TGI” value [17] was 4.40E-09 and the GI50 [18] was 2.63 nM. The CC50 [18] was 46.8 nM, the “SK-BR3 TGI” value [18] was 6.44E-09 and the GI50 [19] was 30.5 nM. The CC50 [19] was 246 nM and the “IGROV-ET TGI” value [19] was 6.88E-08.
